In publication PMC10951960, “CGP7930 - An allosteric modulator of GABABRs, GABAARs and inwardly-rectifying potassium channels” (Neuropharmacology, 2023):

Target: T1, Kir3.1/3.2 channels (GIRK) (Homo sapiens, UniProt P48051+P48549)
T1 construct: expressed in transfected cells
T1 sequence (P48549 1-501): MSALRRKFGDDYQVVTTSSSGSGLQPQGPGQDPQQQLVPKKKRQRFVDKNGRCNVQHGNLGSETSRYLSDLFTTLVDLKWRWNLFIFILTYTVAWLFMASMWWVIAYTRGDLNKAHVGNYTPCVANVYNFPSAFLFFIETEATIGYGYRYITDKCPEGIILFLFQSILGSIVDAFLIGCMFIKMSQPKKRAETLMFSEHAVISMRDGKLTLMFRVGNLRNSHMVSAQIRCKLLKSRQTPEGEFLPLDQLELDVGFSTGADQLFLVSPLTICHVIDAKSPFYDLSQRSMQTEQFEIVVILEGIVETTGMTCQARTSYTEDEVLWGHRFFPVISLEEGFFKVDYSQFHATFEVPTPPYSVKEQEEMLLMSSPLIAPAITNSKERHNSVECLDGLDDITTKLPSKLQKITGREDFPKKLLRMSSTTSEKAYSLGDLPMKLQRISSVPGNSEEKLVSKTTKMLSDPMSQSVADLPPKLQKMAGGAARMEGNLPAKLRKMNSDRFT
T1 sequence (P48051 1-423): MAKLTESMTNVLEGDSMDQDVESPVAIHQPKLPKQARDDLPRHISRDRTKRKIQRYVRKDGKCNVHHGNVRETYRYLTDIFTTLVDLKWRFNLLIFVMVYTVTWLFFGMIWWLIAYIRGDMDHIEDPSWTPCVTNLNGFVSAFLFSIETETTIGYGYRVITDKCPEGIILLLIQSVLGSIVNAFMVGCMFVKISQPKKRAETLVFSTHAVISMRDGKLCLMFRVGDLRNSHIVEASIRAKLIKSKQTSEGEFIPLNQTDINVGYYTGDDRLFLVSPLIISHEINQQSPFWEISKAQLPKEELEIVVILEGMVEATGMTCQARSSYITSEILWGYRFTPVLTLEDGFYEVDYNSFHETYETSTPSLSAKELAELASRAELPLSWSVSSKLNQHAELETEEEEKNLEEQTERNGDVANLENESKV
Assay: block of basally-active K+ currents in GIRK cells not expressing GABABRs, high K+ Krebs
Type: cell-based
Experimental: HEK-293T cells were maintained in Dulbecco's modified Eagle's medium containing 10% (v/v) fetal calf serum (FCS), 100 U/ml penicillin-G, 100 μg/ml streptomycin in 95% air/5% CO2 at 37 °C. All cell culture reagents were acquired from ThermoFisher unless otherwise stated. Cells were plated on 22 mm glass coverslips (VWR, UK), coated with poly-L-lysine (Sigma) and transfected using a calcium phosphate method with cDNAs for eGFP, α, β, γ or δ, in a 1:1:1:1 ratio ([Hannan et al., 2020]) applied 1–2 h after cell plating. HEK-293 cells stably expressing Kir3.1/3.2 channels ([Leaney et al., 2000]) were grown in a selection media containing G418 (0.5 mg/ml) and Zeocin (0.4 mg/ml) and passaged, and plated, as for the HEK-293T cells above. These cells are referred to as GIRK cells throughout the text and were transiently transfected with cDNAs for eGFP, GABAB R1a and R2 in a 1:1:5 ratio applied 1–2 h after cell plating.
GABA-activated currents were recorded 24 h after transfection of HEK-293T or GIRK cells. Spontaneous inhibitory postsynaptic currents (sIPSCs) were recorded from cultured hippocampal neurons at 12–17 days in vitro (DIV). Cells were superfused with a saline solution containing (mM): 140 NaCl, 4.7 KCl, 2.52 CaCl2, 1.2 MgCl2, 11 glucose, and 5 HEPES; pH 7.4. sIPSCs from hippocampal culture neurons were recorded in the presence of 2 mM kynurenic acid to block excitatory neurotransmission. […] GABABR-activated K^+ currents in cultured neurons were recorded in the additional presence of 2 mM kynurenic acid and 20 μM picrotoxin.
Borosilicate glass electrodes (3–5 MΩ) were filled with a K^+-based internal solution for recording GIRK currents containing (mM): 120 KCl, 2 MgCl2, 11 EGTA, 30 KOH, 10 HEPES, 1 CaCl2, 1 GTP, 2 ATP, 14 creatine phosphate, pH 7.0. GABAAR currents and sIPSCs were recorded with a Cs-based internal solution containing (mM): 120 CsCl, 1 MgCl2, 11 EGTA, 30 KOH, 10 HEPES, 1 CaCl2, and 2 K2ATP; pH 7.2. […]

effect on GIRK-mediated inwardly-rectifying currents (I–V, −20 to −120 mV) (10 or 100 μM): inhibition
threshold for whole-cell outward currents (GIRK cells without GABABRs, −60 mV, high K+): 0.3 µM
effect on additional outward rectification (depolarising steps) (GIRK cells, I–V): inhibited
Compound: CC(C)(CO)Cc1cc(C(C)(C)C)c(O)c(C(C)(C)C)c1 [CGP7930, 3-(3′,5′-Di-tert-butyl-4′-hydroxy) phenyl-2,2-dimethylpropanol]
